Laboratory results from patent publication US9856279B2 (AGIOS PHARMACEUTICALS, INC, priority 2011, dated 2018).
pIC50: −log10 of the molar value.

Biological target: IDH1 R132H (Homo sapiens, UniProt O75874, R132H)
Test: Assay for IDH1 R132H inhibitors (NADPH/aKG, resazurin detection)
Format: biochemical
Settings: Table 3; enzyme assay, 50 minutes at room temperature; read-out: IC50 (IDH1 R132H Inhibition)
Method in brief: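 Read-out is resorufin fluorescence (Ex544/Em590) 5 min after adding a 30 μM resazurin detection mix. Before that, mutant enzyme (0.2 μg/ml in its mix) ran 50 min at room temperature with compound, 8 uM NADPH and 2 mM aKG (mix levels) in Tris pH 7.5 with NaCl, MgCl2, BSA.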

Chain of IDH1 R132H (O75874 whole entry R132H): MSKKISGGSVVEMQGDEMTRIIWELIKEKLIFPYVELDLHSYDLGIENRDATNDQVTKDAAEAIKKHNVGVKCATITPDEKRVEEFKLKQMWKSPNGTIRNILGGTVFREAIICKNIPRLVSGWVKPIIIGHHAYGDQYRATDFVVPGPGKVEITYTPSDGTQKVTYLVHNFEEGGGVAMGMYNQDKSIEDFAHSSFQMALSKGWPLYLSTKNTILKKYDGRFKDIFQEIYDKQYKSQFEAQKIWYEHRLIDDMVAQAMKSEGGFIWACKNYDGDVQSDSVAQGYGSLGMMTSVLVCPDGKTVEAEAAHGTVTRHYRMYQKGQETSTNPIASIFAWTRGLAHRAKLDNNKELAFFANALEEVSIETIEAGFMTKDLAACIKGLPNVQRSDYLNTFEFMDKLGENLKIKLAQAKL

Row | pIC50 | Structure (SMILES)
1 | 5.30 to 6.00 | COCCC(=O)N1CCN(c2nc(C(C)C)c(Cc3ccccc3)cc2C#N)C[C@H]1C [Compound 239, (R)-5-benzyl-6-isopropyl-2-(4-(3-methoxypropanoyl)-3-methylpiperazin-1-yl)nicotinonitrile]
2 | 4.82 to 5.30 | CC1CN(c2nc(-c3ccccc3)c(-c3ccccc3)cc2C#N)CCN1C(=O)c1ccoc1 (centres unmarked) [Compound 118, 2-(4-(furan-3-carbonyl)-3-methylpiperazin-1-yl)-5,6-diphenylnicotinonitrile]
3 | ≥ 6.00 | COCCC(=O)N1CCN(c2nc(C3CC3)c(-c3ccc4c(c3)OCO4)c(C)c2C#N)C[C@H]1C [Compound 261, (R)-5-(benzo[d][1,3]dioxol-5-yl)-6-cyclopropyl-2-(4-(3-methoxypropanoyl)-3-methylpiperazin-1-yl)-4-methylnicotinonitrile]
4 | 5.30 to 6.00 | COc1ccccc1-c1cc(C(C)C)nc(N2CCN(C(=O)c3ccoc3)[C@H](C)C2)c1C#N [Compound 148, (R)-2-(4-(furan-3-carbonyl)-3-methylpiperazin-1-yl)-6-isopropyl-4-(2-methoxyphenyl)nicotinonitrile]
5 | ≥ 6.00 | COCCC(=O)N1CCN(c2nc(C3CC3)c(-c3ccc(F)c(Cl)c3)cc2C#N)C[C@H]1C [Compound 248, (R)-5-(3-chloro-4-fluorophenyl)-6-cyclopropyl-2-(4-(3-methoxypropanoyl)-3-methylpiperazin-1-yl)nicotinonitrile]
6 | ≥ 6.00 | COCCC(=O)N1CCN(c2nc(C3CC3)c(-c3cccc(F)c3)c(C)c2C#N)C[C@H]1C [Compound 257, (R)-6-cyclopropyl-5-(3-fluorophenyl)-2-(4-(3-methoxypropanoyl)-3-methylpiperazin-1-yl)-4-methylnicotinonitrile]
7 | 5.30 to 6.00 | CC(C)c1nc(N2CCN(C(=O)c3ccoc3)[C@@H](C)C2)c(C#N)cc1-c1ccccc1 [Compound 144, (S)-2-(4-(furan-3-carbonyl)-3-methylpiperazin-1-yl)-6-isopropyl-5-phenylnicotinonitrile]
8 | 4.82 to 5.30 | N#Cc1c(-c2ccccc2)cc(C2CCCCC2)nc1N1CCN(C(=O)c2ccco2)CC1 [Compound 137, 6-cyclohexyl-2-(4-(furan-2-carbonyl)piperazin-1-yl)-4-phenylnicotinonitrile]
9 | 5.30 to 6.00 | CC(C)c1cc(-c2ccccc2)c(C#N)c(N2CCN(C(=O)c3ccoc3)[C@@H](C)C2)n1 [Compound 132, (S)-2-(4-(furan-3-carbonyl)-3-methylpiperazin-1-yl)-6-isopropyl-4-phenylnicotinonitrile]
10 | 5.30 to 6.00 | CC(C)c1nc(N2CCN(C(=O)Cc3ccccc3)C(C)C2)c(C#N)cc1-c1ccccc1 (stereo in doubt) [Compound 145, (R)-6-isopropyl-2-(3-methyl-4-(2-phenylacetyl)piperazin-1-yl)-5-phenylnicotinonitrile]
11 | 5.30 to 6.00 | COc1ccccc1-c1cc(C#N)c(N2CCN(C(=O)c3ccoc3C)[C@H](C)C2)nc1C(C)C [Compound 178, (R)-6-isopropyl-5-(2-methoxyphenyl)-2-(3-methyl-4-(2-methylfuran-3-carbonyl)piperazin-1-yl)nicotino-nitrile]
12 | 5.30 to 6.00 | CC[C@@H]1CN(c2nc(C(C)C)c(-c3ccccc3)cc2C#N)CCN1C(=O)Cc1cccs1 [Compound 174, (R)-2-(3-ethyl-4-(2-(thiophen-2-yl)acetyl)piperazin-1-yl)-6-isopropyl-5-phenylnicotinonitrile]
13 | 4.82 to 5.30 | CC(C)c1cc(-c2cccc(F)c2)c(C#N)c(N2CC(C)N(C(=O)c3ccco3)C(C)C2)n1 (centres unmarked) [Compound 136, 4-(3-fluorophenyl)-2-(4-(furan-2-carbonyl)-3,5-dimethylpiperazin-1-yl)-6-isopropylnicotinonitrile]
14 | 5.30 to 6.00 | CC(C)c1nc(N2CCN(C(=O)Cc3cccs3)[C@H](C(C)C)C2)c(C#N)cc1-c1ccc(C(F)(F)F)cc1 [Compound 196, (R)-6-isopropyl-2-(3-isopropyl-4-(2-(thiophen-2-yl)acetyl)piperazin-1-yl)-5-(4-(trifluoromethyl)phenyl)-nicotinonitrile]

Same assay, conditions: enzyme assay of Example 12; read-out: IDH1R132H IC50

Row | Structure (SMILES) | pIC50
15 | COCCC(=O)N1CCN(c2nc(C3CC3)c(-c3ccc4cc[nH]c4c3)cc2C#N)C[C@H]1C [Compound 289, (R)-6-cyclopropyl-5-(1H-indol-6-yl)-2-(4-(3-methoxypropanoyl)-3-methylpiperazin-1-yl)nicotinonitrile] | > 6.30
16 | COCCC(=O)N1CCN(c2nc(C3CC3)c(-c3cccc(CC(=O)OC)c3)cc2C#N)C[C@H]1C [Compound 291, (R)-methyl 2-(3-(5-cyano-2-cyclopropyl-6-(4-(3-methoxypropanoyl)-3-methylpiperazin-1-yl)pyridin-3-yl)phenyl)acetate] | 6.00 to 6.30
17 | COCCC(=O)N1CCN(c2nc(C3CC3)c(-c3ccccc3COC)c(C)c2C#N)C[C@H]1C [Compound 348, (R)-6-cyclopropyl-5-(2-methoxymethyl-phenyl)-2-[4-(3-methoxy-propionyl)-3-methyl-piperazin-1-yl]-4-methyl-nicotinonitrile] | > 6.30
18 | COCCC(=O)N1CCN(c2nc(C3CC3)c(-c3cccnc3F)c(C)c2C#N)C[C@H]1C [Compound 369, (R)-2-cyclopropyl-2′-fluoro-6-[4-(3-methoxy-propionyl)-3-methyl-piperazin-1-yl]-4-methyl-[3,3′]bipyridinyl-5-carbonitrile] | 6.00 to 6.30
19 | COCCC(=O)N1CCN(c2nc(C3CC3)c(-c3cccc4c(O)ncnc34)cc2C#N)C[C@H]1C [Compound 430] | 5.00 to 6.00
20 | CNC(=O)c1cccc(-c2c(C3CC3)nc(N3CCN(C(=O)CCOC)[C@H](C)C3)c(C#N)c2C)c1 [Compound 327, (R)-3-{5-cyano-2-cyclopropyl-6-[4-(3-methoxy-propionyl)-3-methyl-piperazin-1-yl]-4-methyl-pyridin-3-yl}-N-methyl-benzamide] | 6.00 to 6.30
21 | COCCC(=O)N1CCN(c2nc(C3CC3)c(-c3cccc(NC(=O)/C=C/CN(C)C)c3)cc2C#N)C[C@H]1C [Compound 441, (R,E)-N-(3-(5-cyano-2-cyclopropyl-6-(4-(3-methoxypropanoyl)-3-methylpiperazin-1-yl)pyridin-3-yl)phenyl)-4-(dimethylamino)but-2-enamide] | 6.00 to 6.30

Continued, values first:

Row | pIC50 | Structure (SMILES)
22 | > 6.30 | CCO[C@H]1C[C@H]1C(=O)N1CCN(c2nc(C3CC3)c(-c3ccc(F)cc3)cc2C#N)C[C@H]1C1CC1 [Compound 564, 6-cyclopropyl-2-((R)-3-cyclopropyl-4-((1R,2S)-2-ethoxycyclopropanecarbonyl)piperazin-1-yl)-5-(4-fluorophenyl)nicotinonitrile]
23 | 6.00 to 6.30 | CCC(=O)Nc1cccc(-c2cc(C#N)c(N3CCN(C(=O)C4CC4)[C@H](C4CC4)C3)nc2C2CC2)c1 [Compound 450, (R)—N-(3-(5-cyano-6-(4-(cyclopropanecarbonyl)-3-cyclopropylpiperazin-1-yl)-2-cyclopropylpyridin-3-yl)phenyl)propionamide]
24 | 6.00 to 6.30 | N#Cc1cc(-c2ccnc(Cl)c2F)c(C2CC2)nc1N1CCN(C(=O)C2CC2)[C@H](C2CC2)C1 [Compound 509, (R)-2′-chloro-6-(4-(cyclopropanecarbonyl)-3-cyclopropylpiperazin-1-yl)-2-cyclopropyl-3′-fluoro-3,4′-bipyridine-5-carbonitrile]
25 | 6.00 to 6.30 | N#Cc1cc(-c2cccc3c2CNC3=O)c(C2CC2)nc1N1CCN(C(=O)C2CC2)[C@H](C2CC2)C1 [Compound 464, (R)-2-(4-(Cyclopropanecarbonyl)-3-cyclopropylpiperazin-1-yl)-6-cyclopropyl-5-(1-oxoisoindolin-4-yl)nicotinonitrile]
26 | 6.00 to 6.30 | N#Cc1cc(-c2cnn(C3CCC(O)C3)c2)c(C2CC2)nc1N1CCN(C(=O)C2CC2)[C@H](C2CC2)C1 (stereo partly drawn) [Compound 493, 2-((R)-4-(cyclopropanecarbonyl)-3-cyclopropylpiperazin-1-yl)-6-cyclopropyl-5-(1-(3-hydroxycyclopentyl)-1H-pyrazol-4-yl)nicotinonitrile]
27 | > 6.30 | COCCC(=O)N1CCN(c2nc(C3CC3)c(-c3cc(Cl)nc(Cl)c3)cc2C#N)C[C@H]1C [Compound 586, (R)-2′,6′-dichloro-2-cyclopropyl-6-(4-(3-methoxypropanoyl)-3-methylpiperazin-1-yl)-[3,4′-bipyridine]-5-carbonitrile]
28 | > 6.30 | COCCC(=O)N1CCN(c2nc(C3CC3)c(-c3cnnc(OS(=O)(=O)C(F)(F)F)c3)cc2C#N)C[C@H]1C [Compound 614, (R)-5-(5-cyano-2-cyclopropyl-6-(4-(3-methoxypropanoyl)-3-methylpiperazin-1-yl)pyridin-3-yl)pyridazin-3-yl trifluoromethanesulfonate]
29 | 6.00 to 6.30 | C#Cc1cc(-c2cc(C#N)c(N3CCN(C(=O)C4CC4)[C@H](C)C3)nc2C2CC2)ccn1 [Compound 593, (R)-6-(4-(cyclopropanecarbonyl)-3-methylpiperazin-1-yl)-2-cyclopropyl-2′-ethynyl-3,4′-bipyridine-5-carbonitrile]
30 | > 6.30 | C=Cc1cnnc(-c2c(C3CC3)nc(N3CCN(C(=O)C[C@@H]4CCO4)[C@H](C4CC4)C3)c(C#N)c2C)c1 [Compound 780, 6-cyclopropyl-2-((R)-3-cyclopropyl-4-(2-((S)-oxetan-2-yl)acetyl)piperazin-1-yl)-4-methyl-5-(5-vinylpyridazin-3-yl)nicotinonitrile]
31 | > 6.30 | C=Cc1cc(-c2c(C3CC3)nc(N3CCN(C(=O)CCCCC)[C@H](C4CC4)C3)c(C#N)c2C)ccn1 [Compound 827, (R)-2-cyclopropyl-6-(3-cyclopropyl-4-hexanoylpiperazin-1-yl)-4-methyl-2′-vinyl-3,4′-bipyridine-5-carbonitrile]
32 | 6.00 to 6.30 | C[C@@H]1CN(c2nc(C3CC3)c(-c3cccc4c3CN(C)C4=O)cc2C#N)CCN1C(=O)C1CC1 [Compound 461, (R)-2-(4-(cyclopropanecarbonyl)-3-methylpiperazin-1-yl)-6-cyclopropyl-5-(2-methyl-1-oxoisoindolin-4-yl)nicotinonitrile]
